Paper PMC9871744 (Cellular and Molecular Gastroenterology and Hepatology, 2022)

Experiment: Cytotoxicity evaluation
Settings: human, Cytotoxicity (%); for cytotoxicity at 0.05 mmol/L: 0.050 mmol/L; for cytotoxicity at 0.1 mmol/L: 0.100 mmol/L
[1] = short treatment in absence of S9 mix
[2] = short treatment in the presence of S9 mix

**Q.** For `CCCCC/C=C\C/C=C\CCCCCCCCP(=O)(OCC)OCC` [NKS-3, diethyl (9Z,12Z)-octadeca-9,12-dien-1-ylphosphonate], which cytotoxicity at 0.0065 mmol/L (extended treatment in the absence of S9 mix, 0.0065 mmol/L) is on record?
**A.** 24.9%

**Q.** What about the cytotoxicity at 0.01 mmol/L (extended treatment in the absence of S9 mix, 0.010 mmol/L) of the same compound?
**A.** 35.3%

**Q.** What about the cytotoxicity at 0.02 mmol/L (extended treatment in the absence of S9 mix, 0.020 mmol/L) of the same compound?
**A.** 49.5%

**Q.** And the cytotoxicity at 0.03 mmol/L (extended treatment in the absence of S9 mix, 0.030 mmol/L)?
**A.** 72.8%

**Q.** And the cytotoxicity at 0.04 mmol/L (extended treatment in the absence of S9 mix, 0.040 mmol/L)?
**A.** 73.7%

**Q.** What about the cytotoxicity at 0.025 mmol/L [1] of the same compound?
**A.** -9.99%

**Q.** What about the cytotoxicity at 0.05 mmol/L [1] of the same compound?
**A.** 14.7%

**Q.** And the cytotoxicity at 0.1 mmol/L [1]?
**A.** 56.2%

**Q.** What about the cytotoxicity at 0.25 mmol/L [1] of the same compound?
**A.** 65.5%

**Q.** What about the cytotoxicity at 0.025 mmol/L [2] of the same compound?
**A.** -3.6%

**Q.** What about the cytotoxicity at 0.05 mmol/L [2] of the same compound?
**A.** -5.03%

**Q.** What about the cytotoxicity at 0.1 mmol/L [2] of the same compound?
**A.** 19.4%

**Q.** What about the cytotoxicity at 0.25 mmol/L [2] of the same compound?
**A.** 73%
